These results are taken from paper PMC10179080, “In Vivo and In Vitro Characterization of Close Analogs of Compound KA-11, a New Antiseizure Drug Candidate” (International Journal of Molecular Sciences, 2023).

The target in series [1] is T1, TRPV1 (VR1) (antagonist effect) (Homo sapiens, UniProt Q8NER1).
T1 construct: host or cells: CHO cells
Description: TRPV1 antagonist functional assay (intracellular Ca2+, CHO cells). The series is classed as cell-based. Conditions: 10 µM. The method, then:
(§1) Binding studies were carried out commercially in Eurofins Laboratories (Poitiers, France or New Taipei City, Taiwan).

The target in the next series is T2, CYP3A4 (Homo sapiens, UniProt P08684).
T2 construct: purchased Promega, Madison, WI, USA
The series is described as follows: CYP3A4 P450-Glo assay. The following applies: 10 µM. It is filed as in vitro ADME. An excerpt:
(§2) The assays and protocols used for evaluating the KA-232 ADME-Tox parameters were similar to those described previously for compound KA-11 [6].
(§3) Figure 9 The effect of KA-232 and the reference drug ketoconazole (KE) on CYP3A4 activity (A). The effect of KA-232 and the reference drug quinidine (QD) on CYP2D6 activity (B). The effect of KA-232 and the reference cytostatic drug doxorubicin (DX) on the HepG2 cell line (C) and the SH-SY5Y cell line (D) viability. Statistical significance (* p < 0.05, **** p < 0.0001) was analyzed by Graph Pad Prism 8 software using one-way ANOVA and Bonferroni’s Multiple Comparison Post Test.

In series [2] the test system is 6-Hz-induced psychomotor seizures in mice. Description: 6 Hz (32 mA) seizure model. The series is classed as in vivo. As to the method:
The experiments were conducted on adult male albino Swiss mice weighing 22–26 g. The animals were kept in colony cages under standardized laboratory conditions: natural light–dark cycle 12/12 h, temperature 20–24 °C, air humidity 45–65% and free access to tap water and food (chow pellets). After 7 days of adaptation to laboratory conditions, the animals were randomly assigned to experimental groups consisting of 8 mice. The experimental procedures described herein were approved by the Local Ethics Committee in Lublin, Poland (approval numbers: 71/2020 and 13/2021), and were conducted in accordance with EU Directive 2010/63/EU for animal experiments. All efforts were made to minimize animal suffering and to use only the number of animals necessary to produce reliable scientific data according to the 3Rs rule.
All substances (except PTZ and tetracaine hydrochloride dissolved in water for injections) were suspended in a 1% solution of Tween 80 (Sigma-Aldrich, Saint Louis, MO, USA) in water for injections (Baxter, Warszawa, Poland) or 0.9% NaCl. All drugs were injected intraperitoneally (i.p.) 30 min before all seizure models with 1 mL syringes as a single injection, in a volume of 10 mL/kg. The pretreatment time (30 min) before testing for KA-228 and KA-232 was chosen based on the time to peak of maximum anticonvulsant activity of KA-11 from our previous studies.
The 6-Hz-induced psychomotor seizures in mice were evoked by current (6 Hz, 0.2 ms rectangular pulse width, 32 mA, 3 s duration) generated by an S48 Square Pulse Stimulator and CCU1 Constant Current Unit (Grass Technologies, West Warwick, RI, USA). The animals were administered with increasing doses of KA-228 and KA-232, and the anticonvulsant activity of each drug was evaluated as the ED50. This experimental procedure has been described in detail in our previous studies.
The ED50 or TD50 values for tested substances in the acute animal models of seizures were calculated using the computer log-probit analysis. Subsequently, the ED50 and TD50 values (±SEM) were statistically analyzed using one-way analysis of variance (ANOVA) followed by the post hoc Dunnett’s test for multiple comparisons. Differences among values were considered statistically significant if p < 0.05. GraphPad Prism version 8 for Windows (GraphPad Software, San Diego, CA, USA) was used as a statistical software program. The results obtained from the acute ivPTZ test and grip strength test were evaluated by a Student’s t test. Fisher’s exact probability test was used to analyze protection from tonic forelimb and hindlimb extension in the ivPTZ test.

Series [3] concerns the target GABAA (α1,β2,γ2) (agonist radioligand) (Homo sapiens, UniProt P14867+P47870). Description: Radioligand binding, GABAA.
In a further series the test system is hepatoma HepG2. Description: Hepatotoxicity, HepG2 cell viability. It is filed as cell-based, human.
From the text: as §2, §3

In the next series the test system is Na^+ channel (site 2). The series is described as follows: Radioligand binding, Na+ channel (site 2). Also noted: species or system rat. The following applies: 10 µM. As to the method:
Dysfunction of both sodium and calcium ion channels is known to be one of the crucial reasons behind the pathogenesis of seizures. Consequently, these ion channels are molecular targets for several clinically important ASDs such as lacosamide, lamotrigine, carbamazepine, oxcarbazepine and compounds currently under preclinical and clinical studies. Thus, for KA-228 and KA-232, we tested herein their binding profile toward the aforementioned ion channels at concentrations of 10 and 100 µM (Table 3). […] Apart from in vitro studies focused on explaining the mechanism of action, KA-232 was additionally tested for its interaction with the potassium channel (hERG) which is recognized as one of the most important ‘off-targets’ responsible for harmful arrhythmogenic activity. Thus, the interaction of potential drug candidates with hERG must be excluded at an early stage of development.
as §1

Series [4] concerns neuromuscular strength in mice. Description: Grip strength test. It is filed as in vivo. The method, then:
The experiments were conducted on adult male albino Swiss mice weighing 22–26 g. The animals were kept in colony cages under standardized laboratory conditions: natural light–dark cycle 12/12 h, temperature 20–24 °C, air humidity 45–65% and free access to tap water and food (chow pellets). After 7 days of adaptation to laboratory conditions, the animals were randomly assigned to experimental groups consisting of 8 mice. The experimental procedures described herein were approved by the Local Ethics Committee in Lublin, Poland (approval numbers: 71/2020 and 13/2021), and were conducted in accordance with EU Directive 2010/63/EU for animal experiments. All efforts were made to minimize animal suffering and to use only the number of animals necessary to produce reliable scientific data according to the 3Rs rule. The grip strength test was carried out according to the methodology described by Socała et al.. Neuromuscular strength was measured just before the ivPTZ seizure threshold test to limit the number of animals used. The ED50 or TD50 values for tested substances in the acute animal models of seizures were calculated using the computer log-probit analysis. Subsequently, the ED50 and TD50 values (±SEM) were statistically analyzed using one-way analysis of variance (ANOVA) followed by the post hoc Dunnett’s test for multiple comparisons. Differences among values were considered statistically significant if p < 0.05. GraphPad Prism version 8 for Windows (GraphPad Software, San Diego, CA, USA) was used as a statistical software program. The results obtained from the acute ivPTZ test and grip strength test were evaluated by a Student’s t test. Fisher’s exact probability test was used to analyze protection from tonic forelimb and hindlimb extension in the ivPTZ test. Figure 8 Effects of KA-228 and KA-232 on neuromuscular strength in mice. KA-228 and KA-232 were administered i.p., 30 min before the test. Control animals received vehicle. […] The statistical significance was evaluated using the Student’s t test: * p < 0.05 vs. the vehicle-treated group (GraphPad Prism 8).

Sequence of GABAA (α1,β2,γ2) (agonist radioligand) (P14867 28-456): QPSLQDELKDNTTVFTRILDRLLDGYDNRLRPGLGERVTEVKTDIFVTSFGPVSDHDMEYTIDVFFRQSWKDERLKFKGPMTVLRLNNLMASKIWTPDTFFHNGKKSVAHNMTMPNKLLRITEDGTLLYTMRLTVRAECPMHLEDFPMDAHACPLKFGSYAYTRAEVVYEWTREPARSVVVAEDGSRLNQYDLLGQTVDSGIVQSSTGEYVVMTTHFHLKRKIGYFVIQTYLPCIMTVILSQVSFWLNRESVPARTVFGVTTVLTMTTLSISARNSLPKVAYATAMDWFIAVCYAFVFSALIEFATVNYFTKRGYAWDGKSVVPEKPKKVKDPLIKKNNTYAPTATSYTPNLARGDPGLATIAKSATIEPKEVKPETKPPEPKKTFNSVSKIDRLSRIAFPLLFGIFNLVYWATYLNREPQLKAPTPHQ
Sequence of GABAA (α1,β2,γ2) (agonist radioligand) (P47870 25-512 limits assumed): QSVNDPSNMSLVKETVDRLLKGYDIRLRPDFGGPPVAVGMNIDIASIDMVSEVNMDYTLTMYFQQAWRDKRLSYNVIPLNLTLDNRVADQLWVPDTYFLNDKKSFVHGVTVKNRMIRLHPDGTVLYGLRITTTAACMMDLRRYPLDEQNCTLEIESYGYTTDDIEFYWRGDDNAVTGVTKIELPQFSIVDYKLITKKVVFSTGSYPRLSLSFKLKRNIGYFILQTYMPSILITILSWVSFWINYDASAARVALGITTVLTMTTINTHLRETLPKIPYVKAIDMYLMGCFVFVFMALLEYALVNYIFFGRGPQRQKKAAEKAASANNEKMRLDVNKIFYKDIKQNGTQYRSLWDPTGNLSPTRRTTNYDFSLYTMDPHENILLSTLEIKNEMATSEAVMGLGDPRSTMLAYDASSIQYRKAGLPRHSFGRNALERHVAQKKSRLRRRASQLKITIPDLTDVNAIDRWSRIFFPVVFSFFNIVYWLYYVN
Sequence of GABAA (α1,β2,γ2) (agonist radioligand) (P18507 40-475 partner): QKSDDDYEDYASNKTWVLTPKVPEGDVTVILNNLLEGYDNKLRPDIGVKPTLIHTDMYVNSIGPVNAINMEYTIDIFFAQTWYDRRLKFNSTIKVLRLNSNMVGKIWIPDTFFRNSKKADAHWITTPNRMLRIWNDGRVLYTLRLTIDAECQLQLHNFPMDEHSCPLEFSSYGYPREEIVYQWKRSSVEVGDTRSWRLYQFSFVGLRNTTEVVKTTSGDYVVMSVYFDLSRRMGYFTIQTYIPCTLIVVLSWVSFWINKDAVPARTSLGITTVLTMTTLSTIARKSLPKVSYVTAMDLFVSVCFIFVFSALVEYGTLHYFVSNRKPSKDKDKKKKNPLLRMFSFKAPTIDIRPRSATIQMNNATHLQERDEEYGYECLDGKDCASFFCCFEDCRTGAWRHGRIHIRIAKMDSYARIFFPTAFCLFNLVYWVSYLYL
T1 sequence (Q8NER1 whole entry): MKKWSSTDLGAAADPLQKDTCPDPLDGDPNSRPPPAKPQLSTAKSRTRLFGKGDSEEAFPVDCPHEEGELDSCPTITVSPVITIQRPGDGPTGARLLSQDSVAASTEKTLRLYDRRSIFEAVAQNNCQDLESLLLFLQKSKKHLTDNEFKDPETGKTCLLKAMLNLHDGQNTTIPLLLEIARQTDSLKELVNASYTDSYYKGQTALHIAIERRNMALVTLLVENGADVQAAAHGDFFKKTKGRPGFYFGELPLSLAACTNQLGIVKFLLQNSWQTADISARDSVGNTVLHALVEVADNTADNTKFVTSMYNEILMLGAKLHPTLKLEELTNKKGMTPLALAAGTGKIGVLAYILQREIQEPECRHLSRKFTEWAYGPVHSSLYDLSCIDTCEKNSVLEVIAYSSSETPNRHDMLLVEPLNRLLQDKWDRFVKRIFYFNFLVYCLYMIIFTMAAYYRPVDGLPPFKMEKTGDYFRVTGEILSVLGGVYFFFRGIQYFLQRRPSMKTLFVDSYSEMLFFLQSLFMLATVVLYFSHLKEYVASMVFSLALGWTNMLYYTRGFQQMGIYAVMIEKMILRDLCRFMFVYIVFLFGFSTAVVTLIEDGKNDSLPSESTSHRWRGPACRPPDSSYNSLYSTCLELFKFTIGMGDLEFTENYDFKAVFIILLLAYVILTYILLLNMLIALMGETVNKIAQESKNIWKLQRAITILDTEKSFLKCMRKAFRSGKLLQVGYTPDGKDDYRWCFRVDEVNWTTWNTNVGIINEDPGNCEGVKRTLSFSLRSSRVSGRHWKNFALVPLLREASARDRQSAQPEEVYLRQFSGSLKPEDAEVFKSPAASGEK
T2 sequence (P08684 whole entry): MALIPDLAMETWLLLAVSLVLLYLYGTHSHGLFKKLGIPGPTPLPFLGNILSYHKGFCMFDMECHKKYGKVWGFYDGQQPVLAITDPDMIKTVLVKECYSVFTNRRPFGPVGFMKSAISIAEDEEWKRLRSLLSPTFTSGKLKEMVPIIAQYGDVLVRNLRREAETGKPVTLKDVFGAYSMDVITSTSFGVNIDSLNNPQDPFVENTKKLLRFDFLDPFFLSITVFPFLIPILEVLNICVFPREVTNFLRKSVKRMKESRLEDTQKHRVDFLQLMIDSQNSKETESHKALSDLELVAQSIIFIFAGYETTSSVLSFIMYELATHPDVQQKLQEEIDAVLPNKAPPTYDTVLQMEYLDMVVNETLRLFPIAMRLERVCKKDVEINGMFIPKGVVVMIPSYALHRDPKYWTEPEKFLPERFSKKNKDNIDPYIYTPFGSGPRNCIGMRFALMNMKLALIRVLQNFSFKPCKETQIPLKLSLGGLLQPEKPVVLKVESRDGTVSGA

Usually inhibition stands for the drop in the measured response relative to a control, in per cent. One may read the ED50 as the midpoint of the dose-response relation. Regarding `CC(C(=O)N1CCN(c2cccc(C(F)(F)F)c2)CC1)N1C(=O)CC(N(C)C)C1=O.Cl` (stereo not drawn) [KA-232, 3-(Dimethylamino)-1-(1-oxo-1-(4-(3-(trifluoromethyl)phenyl)piperazin-1-yl)propan-2-yl)pyrrolidine-2,5-dione hydrochloride], in series [1], the “% Inhibition of control specific binding (functional, antagonist effect)” value is recorded as “did not inhibit”. In addition, the inhibition at 10 µM was 10.5% in series [1] (CHO, read-out: % Inhibition of control specific binding (functional, antagonist effect)) and -6.7% in series [3] (read-out: % Inhibition of Control Specific Binding). Moreover, the “CYP3A4 activity (% of control ± SD)” value on CYP3A4 is listed as 86.77 ± 5.71 % of control. In series [2] (Mus musculus, ip, 30 min before test, read-out: ED50 6 Hz ± SD), the ED50 was 26.5 ± 33.5 mg/kg. In addition, the “TI (TD50/ED50), 6 Hz” value in series [2] (i.p.) came to 6.14. Moreover, the “% Inhibition of Control Specific Binding” value in series [3] (10 µM) is given as “did not interact”; in the series with Na^+ channel (site 2), 3.8%. Besides, the “HepG2 viability (% of control ± SD)” value in the series on hepatoma HepG2 (10 µM) is given as 89.44 ± 10.22 % of control. Further, the HepG2 cell viability result in the series with hepatoma HepG2 (100 µM) is given as “approximately 78 % of control”. Also, the “effect on neuromuscular strength (grip strength)” value in series [4] (50 mg/kg i.p., 30 min before test) is recorded as “did not produce any significant effects”; in series [4] (100 mg/kg i.p., p < 0.05), “slightly decreased”.
